Where “and” joins values, the source holds several entries; their conditions need not be identical. Equal values may be shown once. Inconclusive results and toxic doses are left out.
System: B6C3F1 mice, B16 melanoma ip, median survival T/C
Experiment: NCI In Vivo Anticancer Drug Screen. Data for tumor model B16 Melanoma (intraperitoneal) in B6C3F1 mice
Conditions: endpoint: median survival time, higher = longer survival
How it was run: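 Tumor-bearing mice received test compound; a separate group got vehicle only. Survival was then compared, with results reported as treated over control.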

[1] = dose: 3.12 mg/kg/injection, schedule: Q01DX009 (ip), vehicle: Klucel (hydroxypropylcellulose) (HPC)
[2] = dose: 6.25 mg/kg/injection, schedule: Q01DX009 (ip), vehicle: Klucel (hydroxypropylcellulose) (HPC)
[3] = dose: 12.5 mg/kg/injection, schedule: Q01DX009 (ip), vehicle: Klucel (hydroxypropylcellulose) (HPC)
[4] = dose: 50.0 mg/kg/injection, schedule: Q01DX009 (ip), vehicle: saline
[5] = dose: 100.0 mg/kg/injection, schedule: Q01DX009 (ip), vehicle: saline
[6] = dose: 12.5 mg/kg/injection, schedule: Q01DX009 (ip), vehicle: saline with Tween-80
[7] = dose: 25.0 mg/kg/injection, schedule: Q01DX009 (ip), vehicle: saline with Tween-80
[8] = dose: 50.0 mg/kg/injection, schedule: Q01DX009 (ip), vehicle: saline with Tween-80
[9] = dose: 100.0 mg/kg/injection, schedule: Q01DX009 (ip), vehicle: saline with Tween-80
[10] = dose: 100.0 mg/kg/injection, schedule: Q01DX009 (ip), vehicle: suspension in saline
[11] = dose: 200.0 mg/kg/injection, schedule: Q01DX009 (ip), vehicle: saline with Tween-80
[12] = dose: 6.25 mg/kg/injection, schedule: Q01DX009 (ip), vehicle: saline with Tween-80

O=C(O)C1CSCN1 (stereo not given)
T/C (dose: 0.39 mg/kg/injection, schedule: Q01DX009 (ip), vehicle: Klucel (hydroxypropylcellulose) (HPC)): 95 % of control
T/C (dose: 0.78 mg/kg/injection, schedule: Q01DX009 (ip), vehicle: Klucel (hydroxypropylcellulose) (HPC)): 99 % of control
T/C (dose: 1.56 mg/kg/injection, schedule: Q01DX009 (ip), vehicle: Klucel (hydroxypropylcellulose) (HPC)): 97 % of control
T/C (dose: 1.56 mg/kg/injection, schedule: Q01DX009 (ip), vehicle: saline): 96 % of control
T/C [1]: 86 % of control
T/C (dose: 3.12 mg/kg/injection, schedule: Q01DX009 (ip), vehicle: saline): 86 % of control
T/C [2]: 93 % of control
T/C (dose: 6.25 mg/kg/injection, schedule: Q01DX009 (ip), vehicle: saline): 90 % of control and 107 % of control
T/C [3]: 87 % of control
T/C (dose: 12.5 mg/kg/injection, schedule: Q01DX009 (ip), vehicle: saline): 116 % of control and 98 % of control and 102 % of control
T/C (dose: 25.0 mg/kg/injection, schedule: Q01DX009 (ip), vehicle: saline): 117 % of control and 104 % of control
T/C [4]: 110 % of control and 121 % of control
T/C [5]: 112 % of control and 101 % of control

S=C1NCc2cncnc2N1
T/C [1]: 108 % of control
T/C [2]: 107 % of control
T/C [3]: 88 % of control and 102 % of control

CN(C)N=Nc1ccc(C(N)=O)cc1
T/C (dose: 4.5 mg/kg/injection, schedule: Q01DX009 (ip), vehicle: saline with Tween-80): 110 % of control
T/C (dose: 7.5 mg/kg/injection, schedule: Q01DX009 (ip), vehicle: saline with Tween-80): 114 % of control
T/C (dose: 8.0 mg/kg/injection, schedule: Q01DX009 (ip), vehicle: saline with Tween-80): 107 % of control
T/C [6]: 119 % of control and 120 % of control
T/C (dose: 13.0 mg/kg/injection, schedule: Q01DX009 (ip), vehicle: saline with Tween-80): 101 % of control
T/C (dose: 20.83 mg/kg/injection, schedule: Q01DX009 (ip), vehicle: saline with Tween-80): 114 % of control and 288 % of control
T/C (dose: 21.0 mg/kg/injection, schedule: Q01DX009 (ip), vehicle: saline with Tween-80): 118 % of control
T/C (dose: 34.72 mg/kg/injection, schedule: Q01DX009 (ip), vehicle: saline with Tween-80): 110 % of control and 115 % of control
T/C (dose: 35.0 mg/kg/injection, schedule: Q01DX009 (ip), vehicle: saline with Tween-80): 111 % of control
T/C (dose: 57.86 mg/kg/injection, schedule: Q01DX009 (ip), vehicle: saline with Tween-80): 124 % of control
T/C (dose: 58.0 mg/kg/injection, schedule: Q01DX009 (ip), vehicle: saline with Tween-80): 118 % of control
T/C (dose: 96.0 mg/kg/injection, schedule: Q01DX009 (ip), vehicle: saline with Tween-80): 117 % of control

CC(C)(C)OC(=O)N1CCCC1C(=O)N1CCCC1C(=O)Oc1ccccc1 (stereo not given)
T/C [7]: 103 % of control
T/C [8]: 93 % of control
T/C [9]: 100 % of control
T/C [10]: 118 % of control
T/C [11]: 94 % of control
T/C (dose: 200.0 mg/kg/injection, schedule: Q01DX009 (ip), vehicle: suspension in saline): 115 % of control
T/C (dose: 400.0 mg/kg/injection, schedule: Q01DX009 (ip), vehicle: suspension in saline): 104 % of control

CC1OC(O[C@H]2C[C@](O)(C(C)O)Cc3c(O)c4c(c(O)c32)C(=O)c2c(O)cccc2C4=O)CC(NC=O)C1O (stereo not given in full)
T/C (dose: 0.62 mg/kg/injection, schedule: Q01DX001 (ip), vehicle: water): 158 % of control
T/C (dose: 1.25 mg/kg/injection, schedule: Q01DX001 (ip), vehicle: water): 185 % of control
T/C (dose: 2.5 mg/kg/injection, schedule: Q01DX001 (ip), vehicle: distilled water + Tween-80): 288 % of control
T/C (dose: 2.5 mg/kg/injection, schedule: Q01DX001 (ip), vehicle: water): 257 % of control
T/C (dose: 5.0 mg/kg/injection, schedule: Q01DX001 (ip), vehicle: water): 170 % of control

CC(=O)NC(Cc1cc(I)c(O)c(I)c1)C(=O)O (stereo not given)
T/C [4]: 121 % of control
T/C [5]: 89 % of control
T/C (dose: 200.0 mg/kg/injection, schedule: Q01DX009 (ip), vehicle: saline): 92 % of control
T/C (dose: 400.0 mg/kg/injection, schedule: Q01DX009 (ip), vehicle: saline): 102 % of control

CN(C)CCOc1ccc2c(c1)C/C(=C/c1ncc([N+](=O)[O-])n1C)C2=O
T/C [12]: 100 % of control
T/C [6]: 104 % of control
T/C [7]: 100 % of control
T/C [8]: 111 % of control

CC(=O)O[C@@H]1CO[C@H]2O[C@H]3[C@@H](C(C=O)=C[C@H](O)[C@@H]4C5=C(C(C)C)CC[C@]5(C)CC[C@@]34C)[C@@]2(O)C1=O
T/C (dose: 0.75 mg/kg/injection, schedule: Q01DX009 (ip), vehicle: Klucel (hydroxypropylcellulose) (HPC)): 89 % of control
T/C (dose: 1.5 mg/kg/injection, schedule: Q01DX009 (ip), vehicle: Klucel (hydroxypropylcellulose) (HPC)): 94 % of control
T/C (dose: 3.0 mg/kg/injection, schedule: Q01DX009 (ip), vehicle: Klucel (hydroxypropylcellulose) (HPC)): 88 % of control

C/C(=N\NC(=S)N1CC2CCC(CC2)C1)c1nccs1
T/C [12]: 100 % of control
T/C [6]: 107 % of control
T/C [7]: 105 % of control

Cn1c(=O)c(-c2ccccc2)[n+]([O-])c2ccccc21
T/C [7]: 98 % of control
T/C [8]: 122 % of control
T/C [9]: 101 % of control
T/C [11]: 94 % of control

Cc1cc(Br)c2nsnc2c1[N+](=O)[O-]
T/C [7]: 95 % of control
T/C [8]: 95 % of control
T/C [9]: 103 % of control
T/C [11]: 90 % of control

Nc1cc(Cl)c(N=Nc2ccccc2)c(N)n1
T/C [9]: 89 % of control
T/C [11]: 90 % of control

CC(=O)OC1=C(Cl)CCc2ccccc21
T/C (dose: 37.5 mg/kg/injection, schedule: Q01DX009 (ip), vehicle: saline with Tween-80): 115 % of control
T/C (dose: 75.0 mg/kg/injection, schedule: Q01DX009 (ip), vehicle: saline with Tween-80): 96 % of control
T/C (dose: 150.0 mg/kg/injection, schedule: Q01DX009 (ip), vehicle: saline with Tween-80): 98 % of control

CCc1ccc(C2=C(O)C(=O)C(c3ccccc3)=C(O)C2=O)cc1
T/C [1]: 112 % of control
T/C [2]: 106 % of control
T/C [3]: 108 % of control
T/C (dose: 25.0 mg/kg/injection, schedule: Q01DX009 (ip), vehicle: Klucel (hydroxypropylcellulose) (HPC)): 114 % of control
T/C (dose: 50.0 mg/kg/injection, schedule: Q01DX009 (ip), vehicle: Klucel (hydroxypropylcellulose) (HPC)): 114 % of control
T/C (dose: 100.0 mg/kg/injection, schedule: Q01DX009 (ip), vehicle: Klucel (hydroxypropylcellulose) (HPC)): 108 % of control

O=C(NC(CO)C(=O)O)OCc1ccccc1 (stereo not given)
T/C [7]: 97 % of control
T/C [8]: 98 % of control
T/C [9]: 87 % of control and 102 % of control

Cn1nnc2c(C(N)=O)ncn2c1=O
T/C (dose: 12.5 mg/kg/injection, schedule: Q01DX009 (ip), vehicle: suspension in saline): 113 % of control
T/C (dose: 50.0 mg/kg/injection, schedule: Q01DX009 (ip), vehicle: suspension in saline): 167 % of control
T/C [5]: 181 % of control
T/C [10]: 206 % of control

COc1cc2c(c(OC)c1OC)-c1c(cc3c(c1OC)OCO3)CC(C)C(C)(O)C2OC(=O)c1ccccc1 (stereo not given)
T/C (dose: 25.0 mg/kg/injection, schedule: Q01DX009 (ip), vehicle: saline + Tween-80 + alcohol): 107 % of control
T/C (dose: 50.0 mg/kg/injection, schedule: Q01DX009 (ip), vehicle: saline + Tween-80 + alcohol): 98 % of control
T/C (dose: 100.0 mg/kg/injection, schedule: Q01DX009 (ip), vehicle: saline + Tween-80 + alcohol): 115 % of control
T/C (dose: 200.0 mg/kg/injection, schedule: Q01DX009 (ip), vehicle: saline + Tween-80 + alcohol): 110 % of control

CN(N=O)C(=O)N[C@@H](C=O)[C@@H](O)[C@H](O)[C@H](O)CO
T/C (dose: 12.5 mg/kg/injection, schedule: Q01DX009 (ip), vehicle: other): 115 % of control
T/C (dose: 25.0 mg/kg/injection, schedule: Q01DX009 (ip), vehicle: other): 120 % of control

O=C1c2c(O)cccc2-c2nn(CCNCCO)c3ccc(NCCNCCO)c1c23
T/C (dose: 2.75 mg/kg/injection, schedule: Q01DX009 (ip), vehicle: water): 250 % of control
T/C (dose: 5.5 mg/kg/injection, schedule: Q01DX009 (ip), vehicle: water): 158 % of control

O=CNCC(=O)O
T/C [4]: 91 % of control
T/C [5]: 89 % of control

From PubChem BioAssay AID200 (DTP/NCI, 2004)
